Data: patent US20250154142A1, “THIADIAZOLE-SUBSTITUTED COMPOUND, PHARMACEUTICAL COMPOSITIONS THEREOF, AND APPLICATIONS THEREOF” (Shanghai Yingli Pharmaceutical Co., Ltd., priority 2023, published 2025)
pIC50: −log10 of the molar value.

Key:
PARG (389-976) = target: T1, PARG (389-976) (Homo sapiens, UniProt Q86W56); test: PARG enzyme inhibition assay (TR-FRET); assay type: biochemical; details: Bio PARylated His-TEV-PARP1 substrate
T1 construct: 5 μL of PARG (389-976) (manufactured by Chempartner Chemical Co., Ltd.); purchased Chempartner Chemical Co., Ltd
Experimental: PARG in vitro assays were conducted in standard 384-well plates in a total volume of 15 μL. 5 μL of PARG (389-976) (manufactured by Chempartner Chemical Co., Ltd.) in buffer (50 mM Tris-HCL 7.5, 30 mM KCl, 1 mM EDTA, 3 mM DTT, tween-20 0.01%, BSA 0.025%) was added at a final concentration of 1.5 pM to the 384-well plates containing the compounds to be tested, which was incubated for 30 min at room temperature. To the above mixture was added 5 μL Bio PARylated His-TEV-PARP1 (2-1014) substrate (manufactured by Chempartner Chemical Co., Ltd.) at a final concentration of 12 nM, after addition, the resulting mixture was incubated for 30 minutes at room temperature. Then to the mixture was added detection reagent (5 μL) which was buffered with 50 mM Tris-HCL 7.5, 30 mM KCl, 1 mM EDTA, 3 mM DTT, tween-20 0.01%, BSA 0.025%, and consisted of 3 μM of compound PDD00017273 and 9 nM Mab anti-6HIS XL665 (Cisbio: 61HISXLA) and 0.9 nM streptavidin affinity terbium cryptate (Cisbio: 610SATLA), all at 3× working concentrations (final concentrations of […], 3 nM and 0.3 nM, respectively). After 120 min incubation in the dark at room temperature, TR-FRET signals were measured at Ex 340 and Em 665 and Em 615. The ratio for each well was calculated as Em 665/Em 615 and the compound inhibition rate was calculated based on the obtained data.

[1] = Pharmacokinetic studies in mice after intravenous and oral administration; assay type: in vivo; details: mouse, male CD-1 mice, plasma
Experimental: After intravenous and oral administration to male C57BL/6J mice or male CD-1 mice, plasma samples were collected through the orbital venous plexus at 8-9 time points (e.g., 5 min, 15 min, 30 min, 1 h, 2 h, 4 h, 7 h, 24 h or 5 min, 15 min, 30 min, 1 h, 2 h, 4 h, 6 h, 8 h, 24 h). The collected blood samples were transferred to microcentrifuge tubes containing EDTA-K2 anticoagulant, and the […] were centrifuged for 5 min at 4° C. and 4000 g. The supernatants were stored in a refrigerator at −75° C.±15° C. The concentrations of the compounds in the plasma at the different time points were detected by LC-MS/MS and the relevant pharmacokinetic parameters were calculated using the WinNonlin software

T1 sequence (Q86W56 389-976): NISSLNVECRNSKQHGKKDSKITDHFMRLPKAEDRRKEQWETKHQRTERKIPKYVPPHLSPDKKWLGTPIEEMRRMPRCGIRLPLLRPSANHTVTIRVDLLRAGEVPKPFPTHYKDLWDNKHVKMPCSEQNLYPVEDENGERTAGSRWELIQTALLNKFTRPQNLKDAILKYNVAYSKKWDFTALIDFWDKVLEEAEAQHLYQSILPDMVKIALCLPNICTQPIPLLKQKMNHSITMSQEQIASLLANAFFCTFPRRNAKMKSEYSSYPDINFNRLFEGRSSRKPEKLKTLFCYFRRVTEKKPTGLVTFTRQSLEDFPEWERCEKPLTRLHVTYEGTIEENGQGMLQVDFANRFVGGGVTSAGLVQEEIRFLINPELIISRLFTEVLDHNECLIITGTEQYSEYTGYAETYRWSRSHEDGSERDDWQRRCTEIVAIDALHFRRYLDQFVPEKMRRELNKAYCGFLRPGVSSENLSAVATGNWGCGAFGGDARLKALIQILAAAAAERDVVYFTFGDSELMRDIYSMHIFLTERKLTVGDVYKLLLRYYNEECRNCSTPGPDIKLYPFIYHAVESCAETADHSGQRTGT

pIC50 (PARG (389-976); class symbol) | pIC50 (PARG (389-976); numeric value) | AUC(0-inf) ([1]; intravenous 5 mg/kg) [ng·h/mL] | AUC(0-t) ([1]; intravenous 5 mg/kg) [ng·h/mL] | clearance ([1]; intravenous 5 mg/kg) [mL/min/kg] | AUC(0-inf) ([1]; oral administration 10 mg/kg) [ng·h/mL] | AUC(0-t) ([1]; oral administration 10 mg/kg) [ng·h/mL] | Cmax ([1]; oral administration 10 mg/kg) [ng/mL] | Compound
> 8.70 | 9.68 | 939 | 905 | 89.5 | 929 | 725 | 98.8 | C[C@H]1CN(c2cc(S(=O)(=O)NC3(C)CC3)cc3c2cnn3-c2nnc(C(F)F)s2)C[C@H](C)N1 [Compound 1′, reference compound]
> 8.70 | – | 2350 | 1990 | 35.6 | 3970 | 3260 | 198 | C[C@H]1CN(c2c(F)c(S(=O)(=O)NC3(C)CC3)cc3c2cnn3-c2nnc(C(F)(F)F)s2)C[C@H](C)N1 [Compound 4]
> 8.70 | – | 1620 | 1600 | 51.6 | 2000 | 1970 | 172 | C[C@H]1CN(c2c(F)c(S(=O)(=O)NC3(C)CC3)cc3c2cnn3-c2nnc(C(F)F)s2)C[C@H](C)N1 [Compound 5]

Continued, molecule first:

Compound | pIC50 (PARG (389-976); class symbol) | pIC50 (PARG (389-976); numeric value) | AUC(0-inf) ([1]; intravenous 5 mg/kg) [ng·h/mL] | AUC(0-t) ([1]; intravenous 5 mg/kg) [ng·h/mL] | clearance ([1]; intravenous 5 mg/kg) [mL/min/kg] | AUC(0-inf) ([1]; oral administration 10 mg/kg) [ng·h/mL] | AUC(0-t) ([1]; oral administration 10 mg/kg) [ng·h/mL] | Cmax ([1]; oral administration 10 mg/kg) [ng/mL]
C[C@H]1CN(c2cc(S(=O)(=O)NC3(C)CC3)cc3c2cnn3-c2nnc(C(F)(F)F)s2)C[C@H](C)N1 [Compound 1] | > 8.70 | 9.70 | 3700 | 2540 | 22.5 | 2980 | 2610 | 175
C[C@H]1CN(c2cc(S(=O)(=O)NC3(C#N)CC3)cc3c2cnn3-c2nnc(C(F)(F)F)s2)C[C@H](C)N1 [Compound 2] | > 8.70 | 9.21 | – | – | – | – | – | –
C[C@H]1CN(c2c(F)c(S(=O)(=O)NC3(C#N)CC3)cc3c2cnn3-c2nnc(C(F)(F)F)s2)C[C@H](C)N1 [Compound 3] | – | – | 2420 | 2410 | 34.8 | 4080 | 4070 | 513
